From patent EP0003269A1, “Pentacyclic derivatives, process for their preparation and pharmaceutical compositions containing them” (SCIENCE UNION ET Cie SOCIETE FRANCAISE DE RECHERCHE MEDICALE, priority 1977, dated 1979)

Test: solubility in solvents
Format: physicochemical

solubilité (in a mixture pyridine-eau)	solubilité (in méthanol)	solubilité (in n- butanol)	solubilité (in the other solvents)	solubilité (dichlorhydrate, in organic solvents)	Molecule
soluble	très soluble	très soluble	peu soluble		C[C@@H]1OC=C(C(=O)NN)[C@H]2C[C@H]3c4[nH]c5ccccc5c4CCN3C[C@H]12 [hydrazide de l'acide Raubasinique, Hydrazide de l'acide Raubasinique]
				très soluble	hydrazide de l'acide 10-methoxy raubasinique
